Data as given in PubChem BioAssay (NCI).
Values joined by “and” are separate entries in the source; they are usually repeats but may differ in a detail not shown here. Equal values may be shown once.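 Grown in 96-well plates, cells were treated for 48 hours with each compound at five concentrations. Insufficient inhibition: endpoint recorded as highest concentration tested. GI50 marks 50% less growth. TGI: concentration producing complete growth inhibition.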

test system: UACC-62 melanoma; assay: inhibition of tumour cell growth, NCI panel, 48 h

| SMILES | GI50 [µM] | TGI [µM] |
| --- | --- | --- |
| CN(C)CCCNC1=C(Cl)C(=O)c2ccccc2C1=O | 1.7 | 3.19 |
| O=C(Nc1ccc(F)cc1F)c1cc(I)ccc1O | 1.46 | 4.49 |
| CCOc1ccccc1-n1c(CN2CCN(C(=O)COc3ccc(CNCCCCCCN4C5CCCC4CC(OC(=O)Nc4cc(C)ccc4OC)C5)cc3)CC2)nc2ccccc2c1=O (stereo not drawn) | 1.77 | 3.22 |
| CSc1ccccc1C#C/C=C\C#Cc1ccccc1N1CCCC1=O |  | > 50 |
| NC1CCC(Nc2nc(NCc3ccc(-c4ccco4)nc3)c3ncn(C4CCCC4)c3n2)CC1 (stereo not drawn) | 0.0377 | 0.223 |
| O=C(CCl)N1c2ccccc2Oc2ccc3ccccc3c21 | 1.57 | 3 |
| CCCCCCCCSC1=CC(=O)c2nc3ccccc3c3ccnc1c23 | 42 | > 100 |
| Cc1ccc(-c2nnc(-c3ccc4ccccc4c3)o2)cc1 |  | > 85.6 |
| COc1ccc(-c2cc(-c3ccc(Nc4nc(Nc5ccccc5)nc(Nc5ccc(Cl)cc5)n4)cc3)nc(N)c2C#N)cc1 | 1.47 | 6.73 |
| O=c1n(CC2CO2)c(=O)n(CC2CO2)n1CC1CO1 (stereo not drawn) | 6.51 | > 64.1 |

test system: COLO 205 colon; assay: inhibition of tumour cell growth, NCI panel, 48 h

| SMILES | GI50 [µM] | TGI [µM] |
| --- | --- | --- |
| Nc1cc2nc3ccccc3sc-2cc1=O | 2.16 | 4.61 |
| COc1cc2nc(-c3ccc(C(F)(F)F)cc3)cc(OCCCN3CCC(O)CC3)c2cc1OC | 0.456 | 12.1 |
| O=C1NNC(=O)c2ccccc2SSc2ccccc2C(=O)NNC(=O)c2ccccc2SSc2ccccc21 |  | 50 |
| COc1cc(C(=O)/C=C/c2sc(Cl)nc2Cl)cc(OC)c1OC | 1.72 | 3.9 |
| COc1cc2nc(C)nc(N[C@H](C)c3cc(N)cc(C(F)(F)F)c3)c2cc1O[C@H]1CCOC1 | 15.8 | 33.4 |
| O=C1c2ccccc2C(=O)c2sc(Nc3cccc(Cl)c3)nc21 |  | 7.68 |
| CC1=C(C(=O)Nc2ccc(F)c(Cl)c2)C(c2ccc(Cl)cc2)NC(=O)N1 (stereo not drawn) | 37.5 | > 100 |
| Fc1ccc(Nc2ncnc3ccc(-c4cnc5[nH]ccc5c4)cc23)cc1Cl | 3.58 | 46.3 |
| CN(C)CCCNC1=C(Cl)C(=O)c2ccccc2C1=O | 1.9 | 3.45 |
| O=C(Nc1ccc(F)cc1F)c1cc(I)ccc1O | 5.95 | 21.7 |
| CCOc1ccccc1-n1c(CN2CCN(C(=O)COc3ccc(CNCCCCCCN4C5CCCC4CC(OC(=O)Nc4cc(C)ccc4OC)C5)cc3)CC2)nc2ccccc2c1=O (stereo not drawn) | 1.78 | 3.69 |
| CSc1ccccc1C#C/C=C\C#Cc1ccccc1N1CCCC1=O |  | > 12.6 |
| NC1CCC(Nc2nc(NCc3ccc(-c4ccco4)nc3)c3ncn(C4CCCC4)c3n2)CC1 (stereo not drawn) | 0.0143 | 0.0314 |
| O=C(CCl)N1c2ccccc2Oc2ccc3ccccc3c21 | 0.894 | 2.35 |
| CCCCCCCCSC1=CC(=O)c2nc3ccccc3c3ccnc1c23 | > 100 | > 100 |
| Cc1ccc(-c2nnc(-c3ccc4ccccc4c3)o2)cc1 |  | > 100 |
| COc1ccc(-c2cc(-c3ccc(Nc4nc(Nc5ccccc5)nc(Nc5ccc(Cl)cc5)n4)cc3)nc(N)c2C#N)cc1 | 1 | 2.15 |
| O=c1n(CC2CO2)c(=O)n(CC2CO2)n1CC1CO1 (stereo not drawn) | 6.04 | 41.5 |

test system: K-562 leukemia; assay: inhibition of tumour cell growth, NCI panel, 48 h

| SMILES | GI50 [µM] | TGI |
| --- | --- | --- |
| Nc1cc2nc3ccccc3sc-2cc1=O | 2.48 | > 100 µM |
| COc1cc2nc(-c3ccc(C(F)(F)F)cc3)cc(OCCCN3CCC(O)CC3)c2cc1OC | 1.79 | 16.7 µM |
| O=C1NNC(=O)c2ccccc2SSc2ccccc2C(=O)NNC(=O)c2ccccc2SSc2ccccc21 | 3.76 | 50 µM and > 100 µM |
| COc1cc(C(=O)/C=C/c2sc(Cl)nc2Cl)cc(OC)c1OC | 1.84 | > 100 µM |
| COc1cc2nc(C)nc(N[C@H](C)c3cc(N)cc(C(F)(F)F)c3)c2cc1O[C@H]1CCOC1 | 0.489 | 23.2 µM |
| O=C1c2ccccc2C(=O)c2sc(Nc3cccc(Cl)c3)nc21 |  | 4.36 µM |
| CC1=C(C(=O)Nc2ccc(F)c(Cl)c2)C(c2ccc(Cl)cc2)NC(=O)N1 (stereo not drawn) | 0.0173 | 21.3 µM |
| Fc1ccc(Nc2ncnc3ccc(-c4cnc5[nH]ccc5c4)cc23)cc1Cl | 3.48 | > 100 µM |
| CN(C)CCCNC1=C(Cl)C(=O)c2ccccc2C1=O | 2.47 | 6.03 µM |
| O=C(Nc1ccc(F)cc1F)c1cc(I)ccc1O | 3.16 | > 100 µM |
| CCOc1ccccc1-n1c(CN2CCN(C(=O)COc3ccc(CNCCCCCCN4C5CCCC4CC(OC(=O)Nc4cc(C)ccc4OC)C5)cc3)CC2)nc2ccccc2c1=O (stereo not drawn) | 0.651 | 1.36 µM |
| CSc1ccccc1C#C/C=C\C#Cc1ccccc1N1CCCC1=O |  | > 12.2 µM |
| NC1CCC(Nc2nc(NCc3ccc(-c4ccco4)nc3)c3ncn(C4CCCC4)c3n2)CC1 (stereo not drawn) | 0.0417 | 1.17 µM |
| O=C(CCl)N1c2ccccc2Oc2ccc3ccccc3c21 | 0.31 | 1.42 µM |
| CCCCCCCCSC1=CC(=O)c2nc3ccccc3c3ccnc1c23 | 27.4 | > 100 µM |
| Cc1ccc(-c2nnc(-c3ccc4ccccc4c3)o2)cc1 |  | > 51.2 µM |
| COc1ccc(-c2cc(-c3ccc(Nc4nc(Nc5ccccc5)nc(Nc5ccc(Cl)cc5)n4)cc3)nc(N)c2C#N)cc1 | 1.52 | > 18.6 µM |
| O=c1n(CC2CO2)c(=O)n(CC2CO2)n1CC1CO1 (stereo not drawn) | 51.4 | > 100 µM |
